# In paper PMC10935098 (Molecules, 2024):
# Experiments:
# [1] = tested on: Candida tropicalis (BNCC340288); experiment: microbe, parasite or virus in culture; conditions: 24 h, read-out: MIC, C. tropical
# [2] = tested on: Candida parapsilosis (BNCC336015); experiment: microbe, parasite or virus in culture; conditions: Lodderomyces parapsilosis, 24 h, read-out: MIC, C. parapsilosis
smiles,measurement,setting,value
Clc1ccccc1C(c1ccccc1)(c1ccccc1)n1ccnc1 [clotrimazole],MIC,[1],12.5 µM
same,MIC,[2],25 µM
